target: STING (Homo sapiens, UniProt Q86WV6, G230A/H232R/R293Q/R71H); assay: STING reporter assay in THP1-Dual KO-IFNAR2 cells (2′3′cGAMP stimulation, luciferase reporter); format: cell-based; details: 15 μM 2′3′cGAMP stimulation, 24 h, read-out: Pharmaron, THP1_IFNAR2 STING 24 h Luci Normalized: GeoMean EC50
How it was run: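 EC50 from secreted luciferase (QUANTI-Luc Plus luminescence of supernatant) after 24 h at 37 °C, 5% CO2. Cells: THP1-Dual KO-IFNAR2, treated with compound (0.0017-100 μM final) plus lipofected 2′3′cGAMP at 15 μM final.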

STING, sequence (Q86WV6 whole entry R71H/G230A/H232R/R293Q): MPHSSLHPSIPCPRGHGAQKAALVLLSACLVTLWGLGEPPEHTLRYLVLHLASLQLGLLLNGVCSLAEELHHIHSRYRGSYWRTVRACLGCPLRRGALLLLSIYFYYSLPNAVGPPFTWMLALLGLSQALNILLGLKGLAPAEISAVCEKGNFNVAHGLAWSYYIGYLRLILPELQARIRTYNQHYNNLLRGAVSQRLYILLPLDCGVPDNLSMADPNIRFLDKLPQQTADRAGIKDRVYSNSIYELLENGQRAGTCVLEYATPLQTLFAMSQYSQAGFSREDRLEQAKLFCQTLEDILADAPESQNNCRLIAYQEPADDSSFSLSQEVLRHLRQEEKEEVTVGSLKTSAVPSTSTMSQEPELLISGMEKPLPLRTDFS

Structure (SMILES) | EC50 [nM]
O=C(Nc1c[nH]c2ccc(O[C@H]3C[C@H](c4ccc(C(F)(F)F)cc4)C3)cc12)C1CN(CC(F)(F)F)C1 [Compound 244, 1-(2,2,2-trifluoroethyl)-N-(5-(trans-3-(4-(trifluoromethyl)phenyl)cyclobutoxy)-1H-indol-3-yl)azetidine-3-carboxamide] | 40 to 200
CC(=O)Nc1c[nH]c2ccc(CO[C@H]3C[C@H](c4ccc(C(F)(F)F)cc4)C3)cc12 [Compound 482, N-(5-((trans-3-(4-(trifluoromethyl)phenyl)cyclobutoxy)methyl)-1H-indol-3-yl)acetamide] | 40 to 200
CC(=O)Nc1c[nH]c2ccc(OCCC3CCN(c4ccc(C(F)(F)F)cn4)CC3)cc12 [Compound 257, N-(5-(2-(1-(5-(trifluoromethyl)pyridin-2-yl)piperidin-4-yl)ethoxy)-1H-indol-3-yl)acetamide] | 200 to 1000
CC1(C)CC1C(=O)Nc1c[nH]c2ccc(O[C@H]3C[C@@H](c4ccc(C(F)(F)F)cc4)C3)cc12 (stereo partly drawn) [Compound 359, 2,2-dimethyl-N-(5-(cis-3-(4-(trifluoromethyl)phenyl)cyclobutoxy)-1H-indol-3-yl)cyclopropane-1-carboxamide] | 40 to 200
CC(=O)Nc1c(Br)[nH]c2ccc(OCCc3ccc(C(F)(F)F)cc3)cc12 [Compound 402, N-(2-bromo-5-(4-(trifluoromethyl)phenethoxy)-1H-indol-3-yl)acetamide] | 5000 to 100000
CC(=O)Nc1c[nH]c2ccc(O[C@@H]3C[C@@H](c4ccc(C(F)(F)F)cc4)[C@@H]3C)cc12 [Compound 448, N-(5-((1R,2S,3R)-2-methyl-3-(4-(trifluoromethyl)phenyl)cyclobutoxy)-1H-indol-3-yl)acetamide] | 40 to 200
COCC1(C(=O)Nc2c[nH]c3ccc(O[C@H]4C[C@H](c5ccc(C(F)(F)F)cc5)C4)cc23)CC1 [Compound 468, l-(methoxymethyl)-N-{5-[(1R,3R)-3-[4-(trifluoromethyl)phenyl]cyclobutoxy]-1H-indol-3-yl}cyclopropane-1-carboxamide] | 200 to 1000
O=C(Nc1c[nH]c2ccc(OCCc3ccc(C(F)(F)F)cc3)cc12)C1CCOCC1 [Compound 239, N-(5-(4-(trifluoromethyl)phenethoxy)-1H-indol-3-yl)tetrahydro-2H-pyran-4-carboxamide] | 40 to 200
CC1(C(=O)Nc2c[nH]c3ccc(CCOc4ccc(C(F)(F)F)cc4)cc23)CCOCC1 [Compound 594, 4-methyl-N-(5-(2-(4-(trifluoromethyl)phenoxy)ethyl)-1H-indol-3-yl)tetrahydro-2H-pyran-4-carboxamide] | 200 to 1000
CC(=O)Nc1c[nH]c2c(C)cc(CCOc3ccc(C(F)(F)F)cc3)nc12 [Compound 259, N-(7-methyl-5-(2-(4-(trifluoromethyl)phenoxy)ethyl)-1H-pyrrolo[3,2-b]pyridin-3-yl)acetamide] | 1000 to 5000
N#C[C@@H]1C[C@@H]1C(=O)Nc1c[nH]c2ccc(CCOc3ccc(C(F)(F)F)cc3)cc12 [Compound 582, (1S,2R)-2-cyano-N-(5-(2-(4-(trifluoromethyl)phenoxy)ethyl)-1H-indol-3-yl)cyclopropane-1-carboxamide] | 40 to 200

Now from value to compound:

EC50 [nM] | Structure (SMILES)
200 to 1000 | CC(=O)Nc1c[nH]c2ccc(CCOc3ccc(F)c(C(F)(F)F)c3)cc12 [Compound 470, N-(5-{2-[4-fluoro-3-(trifluoromethyl)phenoxy]ethyl}-1H-indol-3-yl)acetamide]
200 to 1000 | O=C(Nc1c[nH]c2ccc(CCOc3ccc(C(F)(F)F)cc3)cc12)C1(F)CC1 [Compound 400, 1-fluoro-N-(5-(2-(4-(trifluoromethyl)phenoxy)ethyl)-1H-indol-3-yl)cyclopropane-1-carboxamide]
200 to 1000 | O=C(Nc1c[nH]c2ccc(OCC[C@@H]3C[C@@H]4CN(CC(F)(F)F)C[C@@H]4C3)cc12)C1COC1 [Compound 383, N-(5-(2-((3aR,5r,6aS)-2-(2,2,2-trifluoroethyl)octahydrocyclopenta[c]pyrrol-5-yl)ethoxy)-1H-indol-3-yl)oxetane-3-carboxamide]
1000 to 5000 | CC(=O)Nc1c[nH]c2ccc(COC[C@@H]3[C@H]4CN(CC(F)(F)F)C[C@@H]34)cc12 [Compound 274, N-(5-((((1R,5S,6r)-3-(2,2,2-trifluoroethyl)-3-azabicyclo[3.1.0]hexan-6-yl)methoxy)methyl)-1H-indol-3-yl)acetamide]
200 to 1000 | CC(=O)Nc1c[nH]c2ccc(CCOc3cccc(C(F)(F)F)c3)cc12 [Compound 231, N-(5-(2-(3-(trifluoromethyl)phenoxy)ethyl)-1H-indol-3-yl)acetamide]
200 to 1000 | CC(=O)Nc1c[nH]c2ccc(CCOc3cnc4ccc(OC(F)(F)F)cc4c3)cc12 [Compound 480, N-[5-(2-{[6-(trifluoromethoxy)quinolin-3-yl]oxy}ethyl)-1H-indol-3-yl]acetamide]
200 to 1000 | CC1(C(=O)Nc2c[nH]c3ccc(OCc4ccc(C(F)(F)F)cc4)cc23)CCOCC1 [Compound 328, 4-methyl-N-(5-((4-(trifluoromethyl)benzyl)oxy)-1H-indol-3-yl)tetrahydro-2H-pyran-4-carboxamide]
200 to 1000 | N#CC1CCC1C(=O)Nc1c[nH]c2ccc(OCCc3ccc(C(F)(F)F)cc3)cc12 (stereo not drawn) [Compound 187, 2-cyano-N-(5-(4-(trifluoromethyl)phenethoxy)-1H-indol-3-yl)cyclobutane-1-carboxamide]
200 to 1000 | CC(=O)Nc1c[nH]c2ccc(OCC[C@H]3CC[C@H](C(F)(F)F)CC3)cc12 (single isomer, unassigned) [Compound 456, N-(5-(2-(trans-4-(trifluoromethyl)cyclohexyl)ethoxy)-1H-indol-3-yl)acetamide]
200 to 1000 | CC1(C)CC1C(=O)Nc1c[nH]c2ccc(OCc3ccc(C(F)(F)F)cc3)cc12 (stereo not drawn) [Compound 155, 2,2-dimethyl-N-(5-((4-(trifluoromethyl)benzyl)oxy)-1H-indol-3-yl)cyclopropane-1-carboxamide]
200 to 1000 | O=C(CC(O)C(F)(F)F)Nc1c[nH]c2ccc(OCC[C@@H]3C[C@@H]4CN(CC(F)(F)F)C[C@@H]4C3)cc12 (stereo partly drawn) [Compound 433, 4,4,4-trifluoro-3-hydroxy-N-(5-(2-((3aR,5r,6aS)-2-(2,2,2-trifluoroethyl)octahydrocyclopenta[c]pyrrol-5-yl)ethoxy)-1H-indol-3-yl)butanamide]
1000 to 5000 | O=C(Nc1c[nH]c2ccc(CCc3ccc(C(F)(F)F)cc3)cc12)C1CCC1 [Compound 141, N-(5-(4-(trifluoromethyl)phenethyl)-1H-indol-3-yl)cyclobutanecarboxamide]
5000 to 100000 | CC(=O)Nc1c[nH]c2ccc(CCOc3ccnc(C4CC4)c3)cc12 [Compound 463]
200 to 1000 | N#CC1(C(=O)Nc2c[nH]c3ccc(OCc4ccc(C(F)(F)F)cc4)cc23)CC1 [Compound 586, 1-cyano-N-(5-((4-(trifluoromethyl)benzyl)oxy)-1H-indol-3-yl)cyclopropane-1-carboxamide]
200 to 1000 | N#CC1CCC1C(=O)Nc1c[nH]c2ccc(CCOc3ccc(C(F)(F)F)cc3)cc12 (stereo not drawn) [Compound 390, 2-cyano-N-(5-(2-(4-(trifluoromethyl)phenoxy)ethyl)-1H-indol-3-yl)cyclobutane-1-carboxamide]
1000 to 5000 | CC(=O)Nc1c[nH]c2ccc(CCOc3ccc(C(F)(F)F)nc3)cc12 [Compound 232, N-(5-(2-((6-(trifluoromethyl)pyridin-3-yl)oxy)ethyl)-1H-indol-3-yl)acetamide]

Source: patent US12503436B2, “Compounds and compositions for treating conditions associated with STING activity” (NOVARTIS PHARMA AG, priority 2021, dated 2025)
